The values below come from US9428500B2, “Alpha-carbolines for the treatment of cancer” (UNIVERSITA' DEGLI STUDI DI MILANO—BICOCCA, priority 2012, dated 2016).

The subject of this test is parental untransformed BaF3 cells. Put plainly: Tritiated thymidine uptake cell proliferation assay, parental BaF3. The note with it: Mus musculus, BaF3; 3H-thymidine uptake, 72 h, medium with IL-3. Format: cell-based.
In the case of `CN1CCN(c2ccc(-c3ccc4[nH]c5nccc(C#Cc6ccccc6)c5c4c3)cc2)CC1` [Example 37, 6-[4-(4-Methylpiperazin-1-yl)-phenyl]-4-phenylethynyl-9H-pyrido[2,3-b]indole], the IC50 – broadly, the concentration that inhibits the measured activity by half – was determined as 4400 nM. Under `COc1ccccc1C#Cc1ccnc2[nH]c3ccc(-c4ccc(N5CCN(C)CC5)cc4)cc3c12` [Example 38, 4-(2-Methoxyphenylethynyl)-6-[4-(4-methylpiperazin-1-yl)-phenyl]-9H-pyrido[2,3-b]indole] stands 1500 nM. With `CN1CCN(c2ccc(-c3ccc4[nH]c5nccc(C#Cc6ccccc6C(F)(F)F)c5c4c3)cc2)CC1` [Example 39, 6-[4-(4-Methylpiperazin-1-yl)-phenyl]-4-(2-trifluoromethyl-phenylethynyl)-9H-pyrido[2,3-b]indole] the figure was 1200 nM; with `CN1CCN(c2ccc(-c3ccc4[nH]c5nccc(C#Cc6ccc(F)cc6)c5c4c3)cc2)CC1` [Example 40, 4-((4-Fluorophenyl)ethynyl)-6-[4-(4-methylpiperazin-1-yl)-phenyl]-9H-pyrido[2,3-b]indole], 920 nM; with `CN1CCN(c2ccc(-c3ccc4[nH]c5nccc(C#Cc6ccccc6F)c5c4c3)cc2)CC1` [Example 41, 4-((2-Fluorophenyl)ethynyl)-6-[4-(4-methylpiperazin-1-yl)-phenyl]-9H-pyrido[2,3-b]indole], 2500 nM.

Regarding `CN1CCN(c2ccc(-c3ccc4[nH]c5nccc(C#Cc6ccccc6Cl)c5c4c3)cc2)CC1` [Example 42, 4-((2-Chlorophenyl)ethynyl)-6-[4-(4-methylpiperazin-1-yl)-phenyl]-9H-pyrido[2,3-b]indole], the IC50 amounted to 2100 nM. With `CC(C)[Si](C#Cc1ccnc2[nH]c3ccc(-c4ccc(N5CCN(C)CC5)cc4)cc3c12)(C(C)C)C(C)C` [Example 43, 6-(4-(4-Methylpiperazin-1-yl)phenyl)-4-((triisopropylsilyl)ethynyl)-9H-pyrido[2,3-b]indole] the figure was 3400 nM; with `CN1CCN(c2ccc(-c3ccc4[nH]c5nccc(-c6ccc(Oc7ccccc7)cc6)c5c4c3)cc2)CC1` [Example 48, 6-(4-(4-methylpiperazin-1-yl)phenyl)-4-(4-phenoxyphenyl)-9H-pyrido[2,3-b]indole], 2100 nM.

Regarding `CN1CCN(c2ccc(-c3ccc4[nH]c5nccc(-c6ccc(-c7ccc(F)cc7)nc6)c5c4c3)cc2)CC1` [Example 49, 4-(6-(4-fluorophenyl)pyridin-3-yl)-6-(4-(4-methylpiperazin-1-yl)phenyl)-9H-pyrido[2,3-b]indole], the IC50 came out at 3200 nM. With `COc1cc(-c2ccnc3[nH]c4ccc(-c5ccc(N6CCN(C)CC6)cc5)cc4c23)c(OC)cc1C(=O)c1ccccc1` [Example 50, (2,5-dimethoxy-4-(6-(4-(4-methylpiperazin-1-yl)phenyl)-9H-pyrido[2,3-b]indol-4-yl)phenyl)(phenyl)methanone] the figure was 1100 nM. Under `COc1cc(C(=O)c2ccccc2)c(O)cc1-c1ccnc2[nH]c3ccc(-c4ccc(N5CCN(C)CC5)cc4)cc3c12` [Example 51, (2-hydroxy-5-methoxy-4-(6-(4-(4-methylpiperazin-1-yl)phenyl)-9H-pyrido[2,3-b]indol-4-yl)phenyl)(phenyl)methanone] stands 720 nM. With `COc1cc(-c2ccnc3[nH]c4ccc(-c5ccc(N6CCN(C)CC6)cc5)cc4c23)c(OC)cc1Cc1ccccc1` [Example 52, 4-(4-benzyl-2,5-dimethoxyphenyl)-6-(4-(4-methylpiperazin-1-yl)phenyl)-9H-pyrido[2,3-b]indole] the figure was 810 nM; with `COc1cc(Cc2ccccc2)c(O)cc1-c1ccnc2[nH]c3ccc(-c4ccc(N5CCN(C)CC5)cc4)cc3c12` [Example 53, 2-benzyl-4-methoxy-5-(6-(4-(4-methylpiperazin-1-yl)phenyl)-9H-pyrido[2,3-b]indol-4-yl)phenol], 1800 nM.
